In US11459325B2, “Heterocyclic compound” (Takeda Pharmaceutical Company Limited, priority 2018, dated 2022) one finds activity data, which are given here for 13 molecules.

The subject of this assay is GBA mutant human fibroblasts GM008760. Nature of the assay: Glucosylceramide lowering assay. The assay is classed as cell-based. As to conditions: Homo sapiens, Fibroblast, 96 h; 10 μM test compound, 4 days culture; GlcCer (C16:0)/Cer (C16:0) molar ratio of test compound group relative to DMSO control group x100; smaller value = glucosylceramide lowering. The method, then:
Glucosylceramide Lowering Assay
Using GBA mutant human fibroblasts containing mutated glucosylceramidase, the effect of test compounds on glucosylceramide reduction was evaluated.
GBA mutant human fibroblasts GM008760 (Coriel Institute) were seeded in a 96-well multiwell plate at a density of 5,000 cells/100 μL culture solution/well. GlutaMAX (Thermo Fishcer Scientific), penicillin-streptomycin, and Minimum Essential Media (Thermo Fishcer Scientific) supplemented with 15% fetal bovine serum were used as a culture solution. After culturing for 2 days, a 10 mM DMSO solution of the test compound diluted with the culture solution was added to a 96-well plate by 100 μL to adjust a final test compound concentration to 10 μM. After culturing the cells for 4 days in the presence of the test compound, the culture solution was removed, and the cells adhered to the 96-well plate were washed with a phosphate buffer (ThermoFisher Scientific, product number 14190-144). A solvent composed of 50% ethanol and 50% isopropanol was added to the 96-well plate by 100 μL, and the intracellular lipids were dissolved by pipetting. A solution prepared by dissolving N-Octadecanoyl-D35-psychosine (50 ng/mL, Matreya LLC Inc.) as an internal standard in 50% ethanol and 50% isopropanol was added to the sample in an equal volume, and 2.5 μL of the centrifuged supernatant was used as the test compound group.
In the same manner as above, a control group was prepared by using DMSO instead of the 10 mM DMSO solution of the test compound.
For the test compound group and the control group, molar concentrations of glucosylceramide [GlcCer (C16:0)] and ceramide [Cer (C16:0)] were quantified using Rapidfire-MS/MS (API-5000, Turbo-ESI, SRM), and the glucosylceramide lowering effect of the test compound group relative to the control group was evaluated by the following formula. (GlcCer/Cer of test compound group)/(GlcCer/Cer of control group)×100 wherein GlcCer/Cer is the ratio of the molar concentration of glucosylceramide to that of ceramide.
In this test, when the numerical value obtained by the above calculation formula is small, glucosylceramide is metabolized to ceramide by the test compound, or the synthesis of glucosylceramide from ceramide is inhibited by the test compound, that is, it can be said that the test compound has a glucosylceramide lowering effect.
For the molecule `Cc1cn(C)c(=O)c2c(C(=O)N[C@H]3CCC[C@@H]3c3ccccc3)cn(C)c12` (racemic) [Example 110, 1,5,7-trimethyl-4-oxo-N-[rac-(1S,2R)-2-phenylcyclopentyl]-4,5-dihydro-1H-pyrrolo[3,2-c]pyridine-3-carboxamide], the activity at 10 µM was found to be 58%.
Regarding `Cc1cn(C)c(=O)c2c(C(=O)N[C@H]3CCC[C@H]3c3ccccc3)cn(C)c12` (racemic) [Example 111, 1,5,7-trimethyl-4-oxo-N-[rac-(1S,2S)-2-phenylcyclopentyl]-4,5-dihydro-1H-pyrrolo[3,2-c]pyridine-3-carboxamide], the activity at 10 µM came out at 61%.
In the case of `Cc1cn(C)c(=O)c2c(C(=O)N[C@H]3CCCC[C@@H]3c3ccccc3)cn(C)c12` (racemic) [Example 112, 1,5,7-trimethyl-4-oxo-N-[rac-(1S,2R)-2-phenylcyclohexyl]-4,5-dihydro-1H-pyrrolo[3,2-c]pyridine-3-carboxamide] it was 61%; in that of `Cc1cn(C)c(=O)c2c(C(=O)N[C@H]3CCCC[C@H]3c3ccccc3)cn(C)c12` (racemic) [Example 113, 1,5,7-trimethyl-4-oxo-N-[rac-(1S,2S)-2-phenylcyclohexyl]-4,5-dihydro-1H-pyrrolo[3,2-c]pyridine-3-carboxamide], 41%; in that of `Cc1cn(C)c(=O)c2c(C(=O)N[C@H]3CCC[C@H](c4ccccc4)C3)cn(C)c12` (racemic) [Example 114, 1,5,7-trimethyl-4-oxo-N-[rac-(1S,3S)-3-phenylcyclohexyl]-4,5-dihydro-1H-pyrrolo[3,2-c]pyridine-3-carboxamide], 58%.
The value for `CCCCO[C@H]1CC[C@H](NC(=O)c2cn(C)c3c(C)cn(C)c(=O)c23)CC1` [Example 2, N-(trans-4-butoxycyclohexyl)-1,5,7-trimethyl-4-oxo-4,5-dihydro-1H-pyrrolo[3,2-c]pyridine-3-carboxamide] was 87%; that for `Cc1cn(C)c(=O)c2c(C(=O)NC3CCC(c4ccccc4)CC3)cn(C)c12` (stereo not shown) [Example 21, 1,5,7-trimethyl-4-oxo-N-(4-phenylcyclohexyl)-4,5-dihydro-1H-pyrrolo[3,2-c]pyridine-3-carboxamide] was 67%; that for `COc1cc(NC(=O)c2cn(C)c3c(C)cn(C)c(=O)c23)ccn1` [Example 36, N-(2-methoxypyridin-4-yl)-1,5,7-trimethyl-4-oxo-4,5-dihydro-1H-pyrrolo[3,2-c] pyridine-3-carboxamide] was 65%.
In the case of `COc1ccnc(NC(=O)c2cn(C)c3c(C)cn(C)c(=O)c23)c1` [Example 37, N-(4-methoxypyridin-2-yl)-1,5,7-trimethyl-4-oxo-4,5-dihydro-1H-pyrrolo[3,2-c] pyridine-3-carboxamide] it was 68%; in that of `Cc1cn(C)c(=O)c2c(C(=O)Nc3ccc(C#N)cn3)cn(C)c12` [Example 40, N-(5-cyanopyridin-2-yl)-1,5,7-trimethyl-4-oxo-4,5-dihydro-1H-pyrrolo[3,2-c]pyridine-3-carboxamide], 62%.
Turning to `CCCCOC1CCCC(NC(=O)c2cn(C)c3c(C)cn(C)c(=O)c23)C1` (stereo not shown) [Example 57, N-(3-butoxycyclohexyl)-1,5,7-trimethyl-4-oxo-4,5-dihydro-1H-pyrrolo[3,2-c]pyridine-3-carboxamide], the activity at 10 µM was 65%.
In the case of `Cc1cn(C)c(=O)c2c(C(=O)N3CCC(c4ccc(Cl)cc4)C3)cn(C)c12` (stereo not shown) [Example 71, 3-((3-(4-chlorophenyl)pyrrolidin-1-yl)carbonyl)-1,5,7-trimethyl-1,5-dihydro-4H-pyrrolo[3,2-c]pyridin-4-one] it was 68%; in that of `Cc1cn(C)c(=O)c2c(C(=O)N3CC4CC4(c4ccc(Cl)cc4)C3)cn(C)c12` (stereo not shown) [Example 72, 3-((1-(4-chlorophenyl)-3-azabicyclo[3.1.0]hex-3-yl)carbonyl)-1,5,7-trimethyl-1,5-dihydro-4H-pyrrolo[3,2-c]pyridin-4-one], 38%.
